Test results taken from patent US20070191400A1, “Pharmaceutical compositions comprising anti-inflammatory quinazolinecarboxamide derivatives” (Rimonyx Pharmaceuticals Ltd., priority 2004, published 2007).

Key:
[1] = target: T1, Recombinant Human L-Selectin/IgG binding to heparin (Homo sapiens, UniProt P14151); test: Inhibition of L-selectin binding to heparin (ELISA, immobilized heparin-BSA); conditions: for IC50: compounds tested at 0.01 to 300 μM, representative results, read-out: IC-50, inhibition of L-Selectin binding to heparin; for inhibition at 30 µM: read-out: % Inhibition at 30 microMolar conc. (L-Selectin binding to heparin)
T1 construct: purchased Research and Development Systems 728-LS
T1 sequence (P14151 39-332 limits assumed): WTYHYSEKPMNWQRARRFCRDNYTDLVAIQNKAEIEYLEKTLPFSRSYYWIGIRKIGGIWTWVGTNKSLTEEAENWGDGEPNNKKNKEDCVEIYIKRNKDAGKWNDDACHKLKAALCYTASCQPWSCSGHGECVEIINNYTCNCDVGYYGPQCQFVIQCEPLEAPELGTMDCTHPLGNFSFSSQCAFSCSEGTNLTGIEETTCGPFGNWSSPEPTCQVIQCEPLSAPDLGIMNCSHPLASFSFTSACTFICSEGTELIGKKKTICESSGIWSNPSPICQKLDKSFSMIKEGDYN
Method: An in vitro assay was used to assess the ability of test compounds according to formula I to inhibit the interactions of L-selectin with HS-GAGs. The assay was suitable for determining the concentration required for 50% inhibition (IC-50) for each specific compound. In the assay, the GAG used was heparin. Thus, porcine intestinal mucosa heparin conjugated to Bovine Serum Albumin (Heparin-BSA; Sigma Cat. No. H0403) at 5 mg/ml in Phosphate-Buffered Saline (PBS; pH 6.5) was added to a 96-well polystyrene ELISA plate (NUNC Cat. No. 442404; 0.1 ml per well) and incubated over night at 4° C. Following the incubation, the plate was washed thoroughly, by immersion, with de-ionized water and PBS (pH 6.5). The ELISA plate was then blocked with BSA (ICN Cat. No.160069, 3%, 200 μl per well) for 1 hour at room temperature. Following blocking, the plate was washed with de-ionized water, and then with PBS (pH 6.5) containing Tween 20 (Sigma Cat. No. P-1379, 0.05%). Compounds were synthesized or purchased from suppliers of chemical compounds such as ChemDiv Labs (San Diego, Calif.), dissolved in DMSO, diluted in PBS and added to the wells at various concentrations in the range of 0.01 to 300 μM. Recombinant Human L-Selectin/IgG (Research and Development Systems Cat. No.728-LS) dissolved in PBS supplemented with BSA (0.1%) and calcium chloride (1 mM) was added to the ELISA plate (100 μl per well) and incubated for 60 minutes at room temperature with shaking. Following incubation, the plate was washed with de-ionized water and three times with PBS (pH 6.5) containing Tween 20. Anti-Human IgG Peroxidase Conjugate (1:5000; Sigma Product No. A8667) diluted in PBS supplemented with BSA (0.1%) and calcium chloride (1 mM) was added to the ELISA plate (100 μl per well) and incubated for 30 minutes at room temperature with shaking. The plate was then washed with de-ionized water and three times with PBS (pH 6.5) containing Tween 20. The peroxidase substrate chromogen tetramethyl benzidine (TMB; Dako Cat. No. S1599) was added (100 μl per well) to the ELISA plate and incubated at room temperature. After 15 minutes, ELISA Stop Solution (hydrochloric acid 1N, sulfuric acid 3N) was added (200 μl per well) to stop the peroxidase catalyzed colorimetric reaction. The Optical Density (OD) of the samples was measured at 450 nm using an ELISA plate reader (Dynatech MR5000). Data were analyzed with Graphpad Prism software and IC-50 values were established.

BALB/c mice [2] = test: Carrageenan-induced paw edema; assay type: in vivo, mouse
Method: Acute edema was induced in the left hind paw of BALB/c mice (12 mice/group) by injecting 0.02 ml of freshly prepared solution of 2% carrageenan (Sigma) after 60 min of test compound administration (Torres, S. R. et al., European Journal of Pharmacology 408: 199-211, 2000). […], which served as a control. Carrageenan was injected under the plantar region of […] and the paw thickness was measured at 2,4 and 24 hours after carrageenan challenge using a Mitutoyo engineer's micrometer expressed as the difference between right and left pad as mean ±SEM.

[3] = target: T2, CMV envelope glycoprotein B binding to immobilized heparin (Human cytomegalovirus, UniProt P06473); test: Inhibition of CMV envelope glycoprotein B binding to immobilized heparin (ELISA); conditions: for inhibition at 30 µM: read-out: % Inhibition at 30 microMolar conc. (CMV envelope glycoprotein B binding to immobilized heparin); for inhibition at 100 µM: read-out: % Inhibition at 100 microMolar conc. (CMV envelope glycoprotein B binding to immobilized heparin)
T2 construct: purchased Research Diagnostics, INC; RDI-RCMVAG-B
T2 sequence (P06473 32-906): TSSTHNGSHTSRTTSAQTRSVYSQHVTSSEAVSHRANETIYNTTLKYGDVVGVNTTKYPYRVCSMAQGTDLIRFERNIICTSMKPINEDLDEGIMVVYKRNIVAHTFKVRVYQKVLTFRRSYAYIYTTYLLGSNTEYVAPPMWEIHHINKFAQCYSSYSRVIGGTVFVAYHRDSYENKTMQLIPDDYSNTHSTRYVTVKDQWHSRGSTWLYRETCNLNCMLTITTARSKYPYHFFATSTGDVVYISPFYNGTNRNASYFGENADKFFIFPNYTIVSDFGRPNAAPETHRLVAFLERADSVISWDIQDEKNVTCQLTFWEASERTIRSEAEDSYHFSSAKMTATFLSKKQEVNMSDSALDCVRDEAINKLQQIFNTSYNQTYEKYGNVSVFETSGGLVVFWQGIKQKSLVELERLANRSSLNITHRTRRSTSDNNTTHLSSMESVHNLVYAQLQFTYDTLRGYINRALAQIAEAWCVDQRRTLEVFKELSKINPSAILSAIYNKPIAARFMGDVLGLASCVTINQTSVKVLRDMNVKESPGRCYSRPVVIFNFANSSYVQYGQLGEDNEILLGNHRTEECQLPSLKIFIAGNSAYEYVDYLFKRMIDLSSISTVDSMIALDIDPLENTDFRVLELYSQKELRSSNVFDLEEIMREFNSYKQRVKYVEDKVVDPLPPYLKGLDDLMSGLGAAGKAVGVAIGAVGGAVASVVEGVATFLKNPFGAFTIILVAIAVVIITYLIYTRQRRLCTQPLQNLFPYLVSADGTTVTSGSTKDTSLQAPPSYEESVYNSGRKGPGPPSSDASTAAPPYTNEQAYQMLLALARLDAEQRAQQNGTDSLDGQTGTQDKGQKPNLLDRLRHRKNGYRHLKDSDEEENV
Method: Porcine intestinal mucosa heparin conjugated to Bovine Serum Albumin (Heparin-BSA; Sigma Cat. No. H0403) at 5 mg/ml in Phosphate-Buffered Saline (PBS; pH 6.5) was added to a 96-well polystyrene ELISA plate (NUNC Cat. No. 442404; 0.1 ml per well) and incubated over night at 4° C. Following the incubation, the plate was washed consecutively, by immersion, with de-ionized water and PBS (pH 6.5). The ELISA plate was then blocked with BSA (ICN Cat. No. 160069, 3%, 200 μl per well) for 1 hour at room temperature. Following blocking, the plate was washed with de-ionized water, and then with PBS (pH 6.5) plus Tween 20 (0.05%). CMV envelope glycoprotein B (Research Diagnostics, INC. Cat. No. RDI-RCMVAG-B) dissolved in PBS (supplemented with BSA (0.1%)) was added to the ELISA plate (100 μl per well) and incubated for 60 minutes at room temperature with shaking. Following incubation, the plate was washed with de-ionized water and with PBS (pH 6.5) plus Tween. Mouse anti-human Cytomegalovirus gB antibody (Research Diagnostics, INC. Cat. No. RDI-CMVG Babm) diluted in PBS (supplemented with BSA(0.1%)), 1:2000, was added to the ELISA plate (100 μl per well) and incubated for 90 minutes at room temperature with shaking. Following the incubation, the plate was washed with de-ionized water and PBS (pH 6.5) plus Tween. Goat anti-Mouse IgG (H&L) Peroxidase Conjugated antibody (Chemicon International, Inc. Cat. No. AP124P) diluted in PBS (supplemented with BSA (0.1%)), 1:1000, was added to the ELISA plate (100 μl per well) and incubated for 30 minutes at room temperature with shaking. Following the incubation, the plate was washed with de-ionized water and with PBS (pH 6.5) plus Tween. The peroxidase substrate chromogen, TMB (Dako Cat. No. S1599) was added (100 μl per well) to the ELISA plate and incubated at room temperature. After 15 minutes, ELISA Stop Solution (hydrochloric acid iN, sulfuric acid 3N) was added (200 μl per well) to stop the peroxidase catalyzed colorimetric reaction. The Optical Density (OD) of the samples was measured at 450 nm using an ELISA plate reader (Dynatech MR5000).
The CMV envelope glycoprotein B (GBVP) binding assay described above was used to screen a synthetic chemical compound collection on 96-well plates. The compound collection was purchased from ChemDiv Inc. (San Diego, Calif.). […] Individual compounds at a final concentration of 30 or 100 μM were co-incubated with the GBVP on plates containing immobilized heparin and, following washing, bound GBVP was detected with anti-CMV GBVP antibody and secondary antibody conjugated to horseradish peroxidase, as described above. Following color development, the % inhibition compared to control (no compound) for every compound was determined. Compounds that inhibited at least 30% of the signal were scored as hits.

BALB/c mice [4] = test: Thioglycollate-induced leukocyte and neutrophil infiltration into mouse peritoneum; assay type: in vivo; conditions: 10 mg/kg i.p.
Method: BALB/c mice (Velaz, Prague; 6 weeks old, ˜20 g in weight, 15 mice/group) received intraperitoneal injection of an inhibitor compound in 0.2 ml DMSO/Tween/sterile saline 1 hour before administration of thioglycollate (Sigma). Control groups received vehicle and sham controls received no thioglycollate. Mice were injected intraperitoneally with 1 ml of 3% thioglycollate broth (Xie, X. et al., J. Biol. Chem., 275, 34818-34825, 2000). Mice were sacrificed after 3 hours, and the peritoneal cavities were lavaged with 5 ml of ice-cold saline containing 2 mM EDTA to prevent clotting. After red blood cell lysis, leukocytes were counted in a hemocytometer. Neutrophils were counted after staining with Türck's reagent (Merck, Darmstadt, Germany). Data was expressed as mean ±SEM, and statistical analysis was performed by Student t test. A value of p<0.05 was taken to denote statistical significance.

BALB/c mice [5] = test: Delayed-type hypersensitivity (DTH), oxazolone mouse ear-swelling test; assay type: in vivo; conditions: 25 mg/kg per os, 1 hr prior to challenge; 24 hours after challenge
Method: BALB/c mice (Velaz, Prague, Czech Republic; 8 weeks old; 15 animals per group) were sensitized by topical application of a 2% oxazolone (4-ethoxymethylene -2-phenyl-2-oxazoline-5-one; Sigma, St Louis, Mo.) solution in acetone/olive oil (4:1 vol/vol) to shaved abdomen (50 μl) and to each paw (5 μl) (Lange-Asschenfeldt B. et al., Blood 99:538-545, 2002). Five days after sensitization, right ears were challenged by topical application of 10 μl of a 1% oxazolone solution, whereas left ears were treated with vehicle alone. Compounds were administered 1 hr prior to challenge. The extent of inflammation was measured 24 hours after challenge, using the mouse ear-swelling test. Animals were numbered (tail marking) and weighed and the thickness of both ears was recorded with a constant-loading dial micrometer (Mitutoyo, Tokyo). The unpaired Student t-test was used for statistical analyses.

**Q.** `CN1CCN(C(=O)c2ccc3c(=O)n(-c4ccccc4)c(SCC(=O)C(C)(C)C)nc3c2)CC1` [Compound 10] was tested. Which IC50 [1] did it give?
**A.** The IC50 was 22 ± 1.5 µM.

**Q.** With `O=C(CSc1nc2cc(C(=O)NCCCN3CCCCC3)ccc2c(=O)n1CC1CCCO1)c1ccccc1` (stereo not shown) [Compound 6, 2-[(2-oxo-2-phenylethyl)thio]-3-[(tetrahydro-2-furanyl)methyl]-3,4-dihydro-4-oxo -N-[3-(1-piperidinyl)propyl]-7-quinazolinecarboxamide] as the compound, how does the inhibition at 30 µM [1] read?
**A.** The inhibition at 30 µM was 30%.

**Q.** Which IC50 [1] does the source give for `CC(C)Cn1c(S)nc2cc(C(=O)NCCCn3ccnc3)ccc2c1=O` [Compound 9, 2-mercapto-3-(2-methylpropyl-3)-3,4-dihydro-4-oxo-N-[3-(1N-imidazol-1-yl)propyl]-7-quinazolinecarboxamide] here?
**A.** Its IC50 is 21 ± 1.6 µM.

**Q.** What about the “Inhibition of paw edema (difference in paw thickness)” value (BALB/c mice [2]; 50 mg/kg oral, measured after 24 hours) of the same compound?
**A.** The value was “inhibited paw edema”.

**Q.** How did the IC50 [1] turn out when `O=C(NCCCN1CCOCC1)c1ccc2c(=O)n(-c3ccc(F)cc3)c(SCc3ccc(Cl)cc3)nc2c1` [Compound 1, 2-[[(4-chlorophenyl)methyl]thio]-3-(4-fluorophenyl)-3,4-dihydro-4-oxo-N-[3-(4-morpholinyl)propyl]-7-quinazolinecarboxamide] was run?
**A.** The IC50 was 7 ± 1 µM.

**Q.** What about the inhibition at 30 µM [3] of the same compound?
**A.** The inhibition at 30 µM was 33%.

**Q.** What about the “Inhibition of paw edema (difference in paw thickness)” value (BALB/c mice [2]; 1 mg/kg oral, 24 hours after induction) of the same compound?
**A.** Its value is “inhibited paw edema”.

**Q.** What about the “Leukocyte migration into the peritoneal cavity” value (BALB/c mice [4]; 1 hour before thioglycollate, 3 hours) of the same compound?
**A.** Its value is “inhibited efficiently”.

**Q.** What about the “Neutrophil accumulation in the peritoneal cavity” value (BALB/c mice [4]; 3 hours after thioglycollate) of the same compound?
**A.** Its value is 48 % of control value.

**Q.** With `O=C(NCCCN1CCOCC1)c1ccc2c(=O)n(-c3ccc(F)cc3)c(SCc3cccc(F)c3)nc2c1` [Compound 3, 2-[[(3-fluorophenyl)methyl]thio]-3-(4-fluorophenyl)-3,4-dihydro-4-oxo-N-[3-(4-morpholinyl)propyl]-7-quinazolinecarboxamide] as the compound, how does the IC50 [1] read?
**A.** The IC50 was 22 ± 1.2 µM.

**Q.** What about the inhibition at 30 µM [3] of the same compound?
**A.** Its inhibition at 30 µM is 85%.

**Q.** What about the inhibition at 100 µM [3] of the same compound?
**A.** Its inhibition at 100 µM is 88%.

**Q.** How did the inhibition at 30 µM [1] turn out when `CCCCCn1c(SCc2ccncc2)nc2cc(C(=O)N3CCN(C(=O)OCC)CC3)ccc2c1=O` [Compound 7, 4-[[3,4-dihydro-4-oxo-3-pentyl-2-[(4-pyridinylmethyl)thio]-7-quinazolinyl]carbonyl]-1-piperazinecarboxylic acid ethyl ester] was run?
**A.** Its inhibition at 30 µM is 83%.

**Q.** “2-[[2-[[(3-chlorophenyl)methyl]thio]-3-pentyl-3,4-dihydro-4-oxo-N-(4-methylpiperazin -7-quinazolinecarboxamide [Compound 8]” was tested. Which “% Inhibition at 30 microMolar conc. (L-Selectin binding to heparin)” value ([1]; 30 microMolar) did it give?
**A.** Its value is 59%.

**Q.** Which results are given for `COCCNC(=O)c1ccc2c(=O)n(Cc3ccco3)c(SCc3cc(=O)n4ccccc4n3)nc2c1` [Compound 5, 2-[[(4-oxo-4H-pyrido [1,2-a]pyrimidin-2-yl)methyl]thio]-3-(2-furanylmethyl) -3,4-dihydro-4-oxo-N-(2-methoxyethyl)-7-quinazolinecarboxamide]?
**A.** inhibition at 30 µM [1]: 50%; inhibition at 100 µM ([1]; read-out: % Inhibition at 100 microMolar conc. (L-Selectin binding to heparin)): 52%

**Q.** Which results are given for `Cc1ccc(CSc2nc3cc(C(=O)NCCCN4CCOCC4)ccc3c(=O)n2-c2ccc(F)cc2)cc1` [Compound 2, 2-[[(4-methylphenyl)methyl]thio]-3-(4-fluorophenyl)-3,4-dihydro-4-oxo-N-[3-(4-morpholinyl)propyl]-7-quinazolinecarboxamide]?
**A.** IC50 [1]: 24 ± 1.2 µM; inhibition at 100 µM [3]: 86%; Inhibition of DTH (difference in ear thickness) (BALB/c mice [5]): inhibited DTH
